Test results taken from patent publication US8642553B2, “Acacia macrostachya seed extract and compositions containing same” (Laboratoires Expanscience, priority 2009, dated 2014).

Columns and labels:
[1] = system: Normal human keratinocytes; assay: Screening of expression of junction protein messengers in keratinocytes (PCR array); type: cell-based; conditions: 1.5 mM, 24 hours, Control: 100%
Procedure: The activity of Acacia hydrolysate was studied by quantitative RT-PCR on the level of expression of 16 genes mainly coding for tight junction proteins as well as for the major proteins of the communicating junctions of the epidermis. […] The expression of the markers was evaluated by quantitative RT-PCR (PCR array). The variation in the expression of the markers studied compared to the control was expressed in percentage (Control: 100%). The levels of expression are classified in the following manner: […]

Normal human fibroblasts = assay: Gene expression of markers of the dermal matrix and antioxidant defences by fibroblasts (quantitative RT-PCR in real time); type: cell-based; conditions: 5 ng/ml, 24h
Procedure: The effect of Acacia hydrolysate on the modulation of the extra-cellular matrix of the dermis and on the stimulation of the anti-oxidant defences was evaluated on a dermal fibroblasts model in which the gene expression of elastin, MMP1 and heme oxygenase 1 was studied by quantitative RT-PCR in real time.
Normal human fibroblasts were treated for 24h with 0.01% and 0.05% Acacia hydrolysate (w/v) or with the reference TGFβ1 at 5 ng/ml. The gene expression of the selected markers was analysed by quantitative RT-PCR in real time.
The results were analysed statistically by a one-way variance analysis (ANOVA) followed by a Dunnett test: • ns p>0.05: not significant • *0.01<p<0.05: significant • **0.001<p<0.01: very significant • ***p<0.001: highly significant
The level of gene expression was expressed in relative quantity (RQ) and the effect of the treatment in relation to the control cells in percentage increase or inhibition.

| Compound | Cingulin messenger expression [1] [% Control] | Claudin 1 messenger expression [1] [% Control] | Gap junction protein (β2 messenger expression) [1] [% Control] | Occludin messenger expression [1] [% Control] | ELASTIN gene expression, percentage increase or inhibition vs control cells (Normal human fibroblasts) | MMP1 gene expression, percentage increase or inhibition vs control cells (Normal human fibroblasts) [%] | ELASTIN gene expression, relative quantity (RQ) (Normal human fibroblasts; control cells 1.00) | MMP1 gene expression, relative quantity (RQ) (Normal human fibroblasts; control cells 1.00) |
| --- | --- | --- | --- | --- | --- | --- | --- | --- |
| [Ca+2].[Cl-].[Cl-] [CaCl2, calcium chloride] | 337 | 216 | 43 | 445 |  |  |  |  |
| TGFβ1: reference TGFβ1 at 5 ng/ml |  |  |  |  | +559% | −88 | 6.59 | 0.12 |
